Several values for one entry are separate records, joined by “and”; a condition that tells them apart may be missing. Equal entries are not always repeated.
Target: T1, human recombinant MAO-A (Homo sapiens, UniProt P21397)
T1 construct: purchased Sigma-Aldrich
T1 sequence (P21397 1-527): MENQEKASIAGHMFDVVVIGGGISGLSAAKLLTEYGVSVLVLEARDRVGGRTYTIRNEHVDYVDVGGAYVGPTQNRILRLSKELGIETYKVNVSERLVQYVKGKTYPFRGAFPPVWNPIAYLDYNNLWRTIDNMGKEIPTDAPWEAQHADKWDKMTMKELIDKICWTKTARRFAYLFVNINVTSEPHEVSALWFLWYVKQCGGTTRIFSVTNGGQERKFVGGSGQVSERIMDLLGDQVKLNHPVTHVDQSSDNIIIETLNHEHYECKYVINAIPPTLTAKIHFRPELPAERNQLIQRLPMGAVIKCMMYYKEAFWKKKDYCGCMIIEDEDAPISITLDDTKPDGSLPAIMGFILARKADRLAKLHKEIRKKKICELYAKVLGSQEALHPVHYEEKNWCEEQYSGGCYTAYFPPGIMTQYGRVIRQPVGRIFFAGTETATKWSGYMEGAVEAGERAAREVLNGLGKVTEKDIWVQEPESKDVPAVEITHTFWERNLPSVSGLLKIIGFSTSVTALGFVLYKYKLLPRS
Experiment: MAO-A inhibition kinetics (variable substrate, Lineweaver–Burk plot)
Type: biochemical
Design: Michaelis-Menten best-fit Vmax of MAO-A / Michaelis-Menten best-fit Vmax of MAO-A, Average: unit not given here
Settings: for MAO-A assay signal (luminescence) / Transformed (reciprocal of MAO-A assay signal) / Michaelis-Menten best-fit Vmax of MAO-A: N=1-3
Experimental: MAO inhibition assays were performed using a MAO-Glo™ Assay kit (Promega) according to the manufacturer’s instructions. Briefly, 1 µg of human recombinant MAO-A and MAO-B enzyme isoforms were incubated with 160 and 16 µM of MAO substrates, respectively. […] The enzyme reaction was quenched by the addition of a luciferin detection reagent. […] An equal volume of dimethyl sulfoxide (0.1%) was added to the enzyme assay as a control. After 1 h of incubation, the luminescence was measured with a multimode microplate reader (Synergy HT, BioTek, Winooski, VT, USA) to determine the MAO enzyme activities. Initially, the inhibition potential of all the test compounds was evaluated at a concentration of 100 μM. The control reaction (with no inhibitor) with vehicle (DMSO 0.1%) was set at 100% activity. To determine IC50 of the test compounds, the dose dependent enzyme assays were performed. We used range of 0.1 to 50 μM concentrations for MAO-A and 0.1 to 200 μM concentrations of test compounds for the MAO-B enzyme activities. The type of enzyme inhibition was determined using variable concentrations of MAO-A substrate (10–360 µM) and MAO-B substrate (2–64 µM) for the respective enzyme assay. […] A Lineweaver–Burk double reciprocal plot was generated, and the mode of inhibition was determined by visual examination of the plot. The slope of the reciprocal plots was plotted against the inhibitor concentrations and determined the x-axis intercept that represented the inhibitor constant, Ki value.
All experiments were performed in triplicates and data are presented as mean ± standard error of the mean (SEM). The raw data are provided in Supplementary Data, Table S1. Enzyme kinetic data were analyzed using the Lineweaver–Burk plot. Statistical analysis was performed by Student’s t-test using GraphPad Prism Ver. 7.0 (GraphPad Prism Software Inc., San Diego, CA, USA).

[1] = UroB 0.4 µM, MAO-A substrate 10 uM
[2] = UroB 0.4 µM, MAO-A substrate 20 uM
[3] = UroB 0.4 µM, MAO-A substrate 40 uM
[4] = UroB 0.4 µM, MAO-A substrate 80 uM
[5] = UroB 0.4 µM, MAO-A substrate 160 uM
[6] = UroB 0.4 µM, MAO-A substrate 320 uM
[7] = UroB 2 µM, MAO-A substrate 10 uM
[8] = UroB 2 µM, MAO-A substrate 20 uM
[9] = UroB 2 µM, MAO-A substrate 40 uM
[10] = UroB 2 µM, MAO-A substrate 80 uM
[11] = UroB 2 µM, MAO-A substrate 160 uM
[12] = UroB 2 µM, MAO-A substrate 320 uM

## O=c1oc2cc(O)ccc2c2ccccc12 [UB, urolithin-B]
Lineweaver–Burk plot
  mode of inhibition of MAO-A: mixed mode of inhibition
[1]
  MAO-A assay signal (luminescence), Average: 1545
  MAO-A assay signal (luminescence): 1603 and 1392 and 1640
[2]
  MAO-A assay signal (luminescence), Average: 2811.33
  MAO-A assay signal (luminescence): 2815 and 2835 and 2784
[3]
  MAO-A assay signal (luminescence), Average: 5085
  MAO-A assay signal (luminescence): 5099 and 4835 and 5321
[4]
  MAO-A assay signal (luminescence), Average: 9642.33
  MAO-A assay signal (luminescence): 9741 and 9698 and 9488
[5]
  MAO-A assay signal (luminescence), Average: 17162.3
  MAO-A assay signal (luminescence): 17107 and 16984 and 17396
[6]
  MAO-A assay signal (luminescence), Average: 26885
  MAO-A assay signal (luminescence): 27251 and 26905 and 26499
UroB 0.4 µM, [1/S] 0.003125
  Transformed (reciprocal of MAO-A assay signal), Average: 3.72e-5
  Transformed (reciprocal of MAO-A assay signal): 3.67e-5 and 3.717e-5 and 3.774e-5
UroB 0.4 µM, [1/S] 0.00625
  Transformed (reciprocal of MAO-A assay signal), Average: 5.827e-5
  Transformed (reciprocal of MAO-A assay signal): 5.846e-5 and 5.888e-5 and 5.748e-5
UroB 0.4 µM, [1/S] 0.0125
  Transformed (reciprocal of MAO-A assay signal), Average: 0.0001037
  Transformed (reciprocal of MAO-A assay signal): 0.0001027 and 0.0001031 and 0.0001054
UroB 0.4 µM, [1/S] 0.025
  Transformed (reciprocal of MAO-A assay signal), Average: 0.0001967
  Transformed (reciprocal of MAO-A assay signal): 0.0001961 and 0.0002068 and 0.0001879
UroB 0.4 µM, [1/S] 0.05
  Transformed (reciprocal of MAO-A assay signal), Average: 0.0003557
  Transformed (reciprocal of MAO-A assay signal): 0.0003552 and 0.0003527 and 0.0003592
UroB 0.4 µM, [1/S] 0.1
  Transformed (reciprocal of MAO-A assay signal), Average: 0.0006472
  Transformed (reciprocal of MAO-A assay signal): 0.0006238 and 0.0007184 and 0.0006098
[7]
  MAO-A assay signal (luminescence), Average: 917
  MAO-A assay signal (luminescence): 965 and 892 and 894
[8]
  MAO-A assay signal (luminescence), Average: 1607
  MAO-A assay signal (luminescence): 1578 and 1604 and 1639
[9]
  MAO-A assay signal (luminescence), Average: 2957.33
  MAO-A assay signal (luminescence): 3058 and 2874 and 2940
[10]
  MAO-A assay signal (luminescence), Average: 5505.33
  MAO-A assay signal (luminescence): 5631 and 5490 and 5395
[11]
  MAO-A assay signal (luminescence), Average: 10332.7
  MAO-A assay signal (luminescence): 10318 and 10224 and 10456
[12]
  MAO-A assay signal (luminescence), Average: 17850.7
  MAO-A assay signal (luminescence): 18126 and 17343 and 18083
UroB 2 µM, [1/S] 0.003125
  Transformed (reciprocal of MAO-A assay signal), Average: 5.602e-5
  Transformed (reciprocal of MAO-A assay signal): 5.517e-5 and 5.766e-5 and 5.53e-5
UroB 2 µM, [1/S] 0.00625
  Transformed (reciprocal of MAO-A assay signal), Average: 9.678e-5
  Transformed (reciprocal of MAO-A assay signal): 9.6918e-5 and 9.781e-5 and 9.564e-5
UroB 2 µM, [1/S] 0.0125
  Transformed (reciprocal of MAO-A assay signal), Average: 0.0001816
  Transformed (reciprocal of MAO-A assay signal): 0.0001776 and 0.0001821 and 0.0001854
UroB 2 µM, [1/S] 0.025
  Transformed (reciprocal of MAO-A assay signal), Average: 0.0003381
  Transformed (reciprocal of MAO-A assay signal): 0.000327 and 0.0003479 and 0.0003401
UroB 2 µM, [1/S] 0.05
  Transformed (reciprocal of MAO-A assay signal), Average: 0.0006223
  Transformed (reciprocal of MAO-A assay signal): 0.0006337 and 0.0006234 and 0.0006101
UroB 2 µM, [1/S] 0.1
  Transformed (reciprocal of MAO-A assay signal), Average: 0.001091
  Transformed (reciprocal of MAO-A assay signal): 0.001036 and 0.001121 and 0.001119
In presence of UroB 0.4 uM
  Michaelis-Menten best-fit Vmax of MAO-A, Average: 65357.3
  Michaelis-Menten best-fit Vmax of MAO-A: 61114 and 67822 and 67136
In presence of UroB 2 uM
  Michaelis-Menten best-fit Vmax of MAO-A, Average: 66008.7
  Michaelis-Menten best-fit Vmax of MAO-A: 58741 and 70969 and 68316
x-axis intercept of slopes of Lineweaver–Burk plots vs inhibitor concentration
  Ki: 2300 nM
